Data: PMC9785202, “Changes in Disposition of Ezetimibe and Its Active Metabolites Induced by Impaired Hepatic Function: The Influence of Enzyme and Transporter Activities” (Pharmaceutics, 2022)
Like-named read-outs stand apart in the source and are kept apart here.

Legend:
MDR1 = biological target: T1, MDR1 (Homo sapiens, UniProt P08183); assay: Transport study with MDR1-expressing membrane vesicles; format: in vitro ADME; settings: 10 μM, 10 min
T1 construct: purchased GenoMembrane Co., Ltd. (Yokohama, Japan); host or cells: Sf9 insect cells
T1 sequence (P08183 whole entry): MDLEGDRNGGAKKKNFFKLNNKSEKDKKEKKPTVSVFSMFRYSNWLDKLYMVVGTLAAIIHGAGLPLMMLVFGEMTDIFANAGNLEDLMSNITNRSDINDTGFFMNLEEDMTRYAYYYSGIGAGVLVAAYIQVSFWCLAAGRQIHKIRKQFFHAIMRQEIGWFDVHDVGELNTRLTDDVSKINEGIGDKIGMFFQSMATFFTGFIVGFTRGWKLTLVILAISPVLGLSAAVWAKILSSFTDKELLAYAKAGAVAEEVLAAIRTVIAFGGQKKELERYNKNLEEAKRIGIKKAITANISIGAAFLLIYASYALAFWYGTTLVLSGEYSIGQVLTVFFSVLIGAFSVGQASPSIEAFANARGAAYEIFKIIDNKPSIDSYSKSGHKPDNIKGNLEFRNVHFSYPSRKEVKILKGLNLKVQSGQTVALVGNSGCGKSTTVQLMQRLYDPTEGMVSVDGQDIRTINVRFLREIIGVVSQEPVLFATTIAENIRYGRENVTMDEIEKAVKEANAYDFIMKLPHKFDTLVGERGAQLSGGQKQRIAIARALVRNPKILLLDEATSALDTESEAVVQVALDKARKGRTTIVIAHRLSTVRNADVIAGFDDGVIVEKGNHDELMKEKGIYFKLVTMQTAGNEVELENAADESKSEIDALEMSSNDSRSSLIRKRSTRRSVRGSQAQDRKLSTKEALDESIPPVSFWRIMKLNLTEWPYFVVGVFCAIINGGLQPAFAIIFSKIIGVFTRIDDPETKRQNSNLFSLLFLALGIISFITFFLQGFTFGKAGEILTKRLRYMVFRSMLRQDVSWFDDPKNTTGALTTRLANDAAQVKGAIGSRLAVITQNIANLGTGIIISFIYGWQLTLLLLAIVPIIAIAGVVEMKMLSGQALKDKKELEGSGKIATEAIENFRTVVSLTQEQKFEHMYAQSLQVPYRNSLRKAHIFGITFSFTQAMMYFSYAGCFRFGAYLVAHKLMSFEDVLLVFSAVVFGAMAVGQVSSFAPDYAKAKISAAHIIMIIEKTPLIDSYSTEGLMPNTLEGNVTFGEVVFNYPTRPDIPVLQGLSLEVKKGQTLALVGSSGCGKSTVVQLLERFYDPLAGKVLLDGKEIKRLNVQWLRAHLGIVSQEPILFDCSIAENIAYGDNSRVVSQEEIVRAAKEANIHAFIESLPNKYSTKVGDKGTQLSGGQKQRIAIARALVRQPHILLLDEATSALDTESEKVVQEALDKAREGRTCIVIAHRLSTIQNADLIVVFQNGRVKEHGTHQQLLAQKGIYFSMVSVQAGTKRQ
Protocol: (§1) Human MDR1-, MRP2-, and MRP3-expressing membrane vesicles isolated from Sf9 insect cells were sourced from GenoMembrane Co., Ltd. (Yokohama, Japan).
(§2) In transport studies, a modified rapid filtration technique was used according to the manufacturer’s protocol (GenoMembrane Co.). The uptake of test compounds (10 μM EZE or EZE-Ph) into membrane vesicles (100 μg protein/100 μL) was conducted with or without 4 mM ATP in the transport medium (50 μL, pH 7.4), which included 50 mM MOPS-Tris, 70 mM KCl, and 7.5 mM MgCl2. The vesicular transport was terminated after 10 min by adding 200 μL of ice-cold stop buffer containing 40 mM MOPS-Tris and 70 mM KCl. The stopped incubate was quickly transferred to a 96-well glass fiber filter plate (Millipore, MA, USA) and washed five times with ice-cold stop buffer. The EZE and EZE-Ph inside the vesicles were released by adding 200 μL of methanol–water (70:30, v/v) and analyzed by LC-MS/MS. The ATP-dependent transport was evaluated based on the ratio of transport with ATP to that without ATP.

[1] = for Autosampler stability (4°C, 24 h), RE / Post-extraction stability (room temperature 3 h), RE / Freeze-thaw stability (−20°C, three cycles), RE / Short-term stability (room temperature 3 h), RE: n = 6; for stability in rat plasma under the test conditions: LQC and HQC samples, short-term, post-extraction, auto-sampler, three freeze/thaw cycles; for Freeze-thaw stability (−20°C, three cycles), RE / Short-term stability (room temperature 3 h), RE: rat plasma; for stability in blood: room temperature for 2 h
Protocol: The instrument parameters were as follows: ion spray voltage, −4500 V; source temperature, 550 °C; nebulizer gas, 60 psi; heater gas, 60 psi; and curtain gas, 40 psi. […] Data were acquired and processed with the Analyst 1.6.3 software (Applied Biosystems). The standard curve ranges were 1.00 to 1000 ng/mL for EZE, 3.00 to 3000 ng/mL for EZE-Ph, and 1.00 to 1000 ng/mL for EZE-Hy in plasma.
Summary of the stability of ezetimibe and its metabolites in rat plasma (n = 6).

[2] = Portal vein and femoral vein plasma pharmacokinetics after oral EZE; format: in vivo, rats; settings: oral 10 mg/kg EZE; for AUC(0-t): Sprague-Dawley, rat, po, 10 mg/kg
Protocol: To investigate changes due to the first-pass metabolism and biliary excretion during liver disease, CCl4-induced rats (n = 5) and control rats (n = 5) were anesthetized and the hepatic portal and femoral veins were cannulated with PE-50 polyethylene tubing. EZE was orally administered to rats at 10 mg/kg. Blood samples were collected simultaneously from the hepatic portal and femoral veins before administration (0 h), at 5, 15, and 30 min, and at 1, 2, 4, 6, 8, 12, 24, and 48 h after administration. Plasma samples were harvested as previously described.
(§3) A 25.0 μL aliquot of each sample and 25.0 μL of internal standard (50.0 ng/mL EZE-d4) were mixed with 100 μL of acetonitrile. After the samples were vortexed and centrifugated at 2250 g for 15 min, the supernatants were used to measure EZE and its metabolites by LC-MS/MS.
(§4) WinNonlin version 6.1 (Pharsight Corp., Cary, NC, USA) was used to calculate the pharmacokinetic parameters in a non-compartmental model. Statistical comparisons between the two groups were evaluated using a Student’s two-tailed unpaired t-test or the nonparametric Mann–Whitney test in GraphPad Prism (version 8.0, GraphPad Software Inc, SanDiego, CA, USA). A value of p < 0.05 was considered significant. All data were presented as the mean ± S.D. (n ≥ 3).

rat primary hepatocytes = assay: Uptake of EZE and EZE-Ph by rat primary hepatocytes; format: in vitro ADME; settings: 10 μM, 10 min
Protocol: Rat primary hepatocytes were isolated from male SD rats as previously described [34]. Fresh rat hepatocytes (120,000 per well) were cultured in Williams’ E medium (containing 0.1 μM dexamethasone, 5% fetal bovine serum, 1% penicillin G/streptomycin, 1% GlutaMAX-I, and 1% insulin–transferrin–selenium) on collagen I-coated 48-well plates. Rat hepatocytes cultured for 4 h under a carbogen atmosphere were directly used for uptake assays.
The hepatocytes were rinsed three times with HBSS (37 °C) and equilibrated in HBSS for 10 min. […] After 10 min of incubation, cells were quickly washed three times with ice-cold HBSS and then lysed by the addition of 300 μL of purified water. The protein content was measured using the BCA protein assay kit. EZE and EZE-Ph were analyzed by LC-MS/MS.
The rates of substrate uptake were normalized using the protein contents of cell lysates.

MRP2 = biological target: T2, MRP2 (Homo sapiens, UniProt Q92887); assay: Transport study with MRP2-expressing membrane vesicles; format: in vitro ADME; settings: 10 μM, 10 min
T2 construct: purchased GenoMembrane Co., Ltd. (Yokohama, Japan); host or cells: Sf9 insect cells
T2 sequence (Q92887 whole entry): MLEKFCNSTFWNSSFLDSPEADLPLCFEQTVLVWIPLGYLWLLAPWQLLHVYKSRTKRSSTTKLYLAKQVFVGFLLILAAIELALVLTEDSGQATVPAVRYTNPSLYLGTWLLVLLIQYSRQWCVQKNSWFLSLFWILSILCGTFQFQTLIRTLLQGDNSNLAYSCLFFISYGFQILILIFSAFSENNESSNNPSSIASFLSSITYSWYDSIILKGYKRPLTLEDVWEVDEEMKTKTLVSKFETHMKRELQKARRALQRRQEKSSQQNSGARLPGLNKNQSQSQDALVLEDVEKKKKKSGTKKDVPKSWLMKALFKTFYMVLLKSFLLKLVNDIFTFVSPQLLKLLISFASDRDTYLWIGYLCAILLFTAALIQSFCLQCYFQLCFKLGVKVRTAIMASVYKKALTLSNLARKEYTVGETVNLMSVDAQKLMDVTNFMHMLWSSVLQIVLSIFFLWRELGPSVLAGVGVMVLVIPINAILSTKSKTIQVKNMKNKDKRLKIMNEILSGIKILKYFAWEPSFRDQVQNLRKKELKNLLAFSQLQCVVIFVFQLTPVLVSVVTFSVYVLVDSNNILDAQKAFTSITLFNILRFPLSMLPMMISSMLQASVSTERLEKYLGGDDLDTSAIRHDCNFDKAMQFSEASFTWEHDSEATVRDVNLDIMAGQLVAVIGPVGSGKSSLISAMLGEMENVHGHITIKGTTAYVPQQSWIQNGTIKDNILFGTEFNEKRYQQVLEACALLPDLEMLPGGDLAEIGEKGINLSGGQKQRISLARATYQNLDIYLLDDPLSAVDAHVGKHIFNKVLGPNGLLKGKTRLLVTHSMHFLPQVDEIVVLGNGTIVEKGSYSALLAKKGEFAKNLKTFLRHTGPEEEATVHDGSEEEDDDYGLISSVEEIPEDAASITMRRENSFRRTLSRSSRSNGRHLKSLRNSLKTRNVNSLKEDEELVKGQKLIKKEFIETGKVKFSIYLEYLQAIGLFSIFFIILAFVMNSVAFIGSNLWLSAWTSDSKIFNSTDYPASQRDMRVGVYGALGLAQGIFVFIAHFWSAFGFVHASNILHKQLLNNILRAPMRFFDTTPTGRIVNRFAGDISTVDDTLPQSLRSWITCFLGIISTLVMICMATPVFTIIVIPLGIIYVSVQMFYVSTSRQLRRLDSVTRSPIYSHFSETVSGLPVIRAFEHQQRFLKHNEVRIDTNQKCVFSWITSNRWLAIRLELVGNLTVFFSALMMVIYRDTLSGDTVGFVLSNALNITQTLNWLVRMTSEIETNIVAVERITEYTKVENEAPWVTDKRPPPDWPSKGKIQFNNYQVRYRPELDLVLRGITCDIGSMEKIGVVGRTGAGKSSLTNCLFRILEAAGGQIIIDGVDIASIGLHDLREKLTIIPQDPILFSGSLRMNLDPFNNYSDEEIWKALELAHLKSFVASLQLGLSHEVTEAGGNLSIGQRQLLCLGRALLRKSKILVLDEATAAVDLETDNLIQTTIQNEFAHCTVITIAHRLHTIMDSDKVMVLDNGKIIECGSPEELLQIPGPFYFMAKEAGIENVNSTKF
Protocol: as §1, §2

MRP3 = biological target: T3, MRP3 (Homo sapiens, UniProt O15438); assay: Transport study with MRP3-expressing membrane vesicles; format: in vitro ADME; settings: 10 μM, 10 min
T3 construct: purchased GenoMembrane Co., Ltd. (Yokohama, Japan); host or cells: Sf9 insect cells
T3 sequence (O15438 whole entry): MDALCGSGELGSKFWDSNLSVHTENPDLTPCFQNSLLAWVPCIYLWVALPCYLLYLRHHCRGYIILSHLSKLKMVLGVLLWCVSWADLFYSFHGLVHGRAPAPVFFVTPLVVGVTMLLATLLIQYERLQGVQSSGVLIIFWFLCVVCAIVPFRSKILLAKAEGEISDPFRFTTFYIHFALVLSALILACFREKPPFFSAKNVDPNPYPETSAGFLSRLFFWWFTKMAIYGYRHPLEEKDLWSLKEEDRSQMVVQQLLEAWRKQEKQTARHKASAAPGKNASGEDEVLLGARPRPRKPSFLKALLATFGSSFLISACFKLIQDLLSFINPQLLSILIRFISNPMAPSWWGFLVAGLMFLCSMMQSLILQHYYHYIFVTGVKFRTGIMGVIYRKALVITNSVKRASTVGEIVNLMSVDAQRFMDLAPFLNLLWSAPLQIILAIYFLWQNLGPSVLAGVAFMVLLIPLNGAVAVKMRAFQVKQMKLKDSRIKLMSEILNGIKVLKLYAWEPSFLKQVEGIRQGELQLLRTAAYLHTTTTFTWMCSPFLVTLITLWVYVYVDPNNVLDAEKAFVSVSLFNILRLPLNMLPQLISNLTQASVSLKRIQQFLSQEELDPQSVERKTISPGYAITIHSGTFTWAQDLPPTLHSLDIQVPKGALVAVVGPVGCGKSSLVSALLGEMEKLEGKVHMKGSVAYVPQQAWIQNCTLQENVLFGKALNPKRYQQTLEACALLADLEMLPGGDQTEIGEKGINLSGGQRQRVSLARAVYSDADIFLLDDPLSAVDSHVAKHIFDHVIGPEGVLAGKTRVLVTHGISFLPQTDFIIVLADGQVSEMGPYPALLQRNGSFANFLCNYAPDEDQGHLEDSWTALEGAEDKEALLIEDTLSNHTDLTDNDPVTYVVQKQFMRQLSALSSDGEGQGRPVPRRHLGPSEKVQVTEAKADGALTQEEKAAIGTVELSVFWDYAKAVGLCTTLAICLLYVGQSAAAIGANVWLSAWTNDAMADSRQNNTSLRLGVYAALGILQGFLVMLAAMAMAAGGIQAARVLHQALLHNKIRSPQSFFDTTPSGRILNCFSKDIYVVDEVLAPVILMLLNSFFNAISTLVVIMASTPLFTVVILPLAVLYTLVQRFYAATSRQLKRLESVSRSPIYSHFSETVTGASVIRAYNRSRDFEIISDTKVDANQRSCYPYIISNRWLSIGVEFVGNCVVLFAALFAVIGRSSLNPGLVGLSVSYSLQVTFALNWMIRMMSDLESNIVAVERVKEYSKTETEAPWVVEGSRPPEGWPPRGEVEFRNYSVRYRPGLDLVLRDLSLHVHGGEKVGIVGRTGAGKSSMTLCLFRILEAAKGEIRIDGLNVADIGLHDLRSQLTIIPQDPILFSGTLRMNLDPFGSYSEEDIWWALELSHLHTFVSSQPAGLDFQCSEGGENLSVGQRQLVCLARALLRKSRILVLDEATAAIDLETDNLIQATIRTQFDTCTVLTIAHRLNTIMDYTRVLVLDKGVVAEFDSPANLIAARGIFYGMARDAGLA
Protocol: as §1, §2

UGTs = assay: Incubation of EZE with liver S9 fractions of control and CCl4-induced rats (glucuronidation); format: in vitro ADME, rat; settings: 60 min
Protocol: One portion of the rat liver tissue was homogenized in a 5-fold volume of ice-cold phosphate buffer (including 250 mM sucrose, 10 mM Tris-HCl, and 1 mM EDTA-2Na, pH 7.4) and centrifugated at 9000 g for 20 min. After centrifugation, the supernatant was collected as the S9 fraction and stored at −80 °C.
To evaluate the effect of hepatic impairment on the hepatic metabolism of EZE, 0.3 μM, 3 μM, and 30 μM EZE were incubated with rat liver S9 fractions (2 mg of protein/mL) at 37 °C for 60 min in the Tris-HCl-buffered system (100 mM, pH 7.4), consisting of UDPGA (1 mM), MgCl2 (10 mM), and alamethicin (25 μg/mL). To investigate the effect of bile acids on the metabolism of EZE in the liver, 3 μM EZE was incubated with rat or human liver S9 fractions (2 mg of protein/mL) at 37 °C for 60 min in the Tris-HCl-buffered system with or without bile acids at 1, 10, and 100 μM. The total volume of the incubation system was 100 μL. The reactions were terminated by adding 100 μL of ice-cold acetonitrile. Samples were stored at −20 °C until analysis. EZE and EZE-Ph were detected by liquid chromatography with tandem mass spectrometry (LC-MS/MS).

[3] = Pharmacokinetics after intravenous or oral administration of 10 mg/kg EZE to control and CCl4-induced rats; format: in vivo; settings: for AUC(0-t) / half-life / Cmax at 5 min / Cmax / Tmax: Sprague-Dawley, rat, plasma, 10 mg/kg; for Cmax at 5 min: read-out: Cmax (* plasma concentration at 5 min after intravenous injection)
Protocol: Animals were fasted for 12 h with free access to water before the experiments. EZE was administered orally (prepared in 0.5% carboxymethylcellulose sodium) or intravenously (dissolved in 10% dimethyl sulfoxide, 10% tween-80, and 80% sterile H2O) to CCl4-induced rats (n = 5) and control rats (n = 5) at 10 mg/kg. Blood samples were collected from the retro-orbital venous plexus before administration (0 h), at 5, 15, and 30 min, and at 1, 2, 4, 6, 8, 12, 24, and 48 h after administration in tubes containing EDTA-2K. Plasma samples were harvested by centrifugation at 11,600 g for 5 min at 4 °C and then stored at −80 °C until further analysis.
as §3, §4

[4] = LQC (EZE/EZE-Ph/EZE-Hy 3.00/9.00/3.00 ng/ml)
[5] = femoral vein plasma, CCl4-induced rats, read-out: AUC0–t in femoral vein plasma
[6] = femoral vein plasma, control rats, read-out: AUC0–t in femoral vein plasma
[7] = portal vein plasma, CCl4-induced rats, read-out: AUC0–t in portal vein plasma
[8] = portal vein plasma, control rats, read-out: AUC0–t in portal vein plasma
[9] = iv, i.v. 10 mg/kg EZE, CCl4-induced rats
[10] = iv, i.v. 10 mg/kg EZE, control rats
[11] = po, p.o. 10 mg/kg EZE, CCl4-induced rats
[12] = po, p.o. 10 mg/kg EZE, control rats
[13] = intravenous injection of 10 mg/kg EZE
[14] = oral administration of 10 mg/kg EZE

SMILES: O=C1[C@H](CC[C@H](O)c2ccc(F)cc2)[C@@H](c2ccc(O)cc2)N1c1ccc(F)cc1 [EZE, 1-(4-fluorophenyl)-3(R)-[3-(4-fluorophenyl)-3(S)-hydroxypropyl]-4(S)-(4-hydroxyphenyl)-2-azetidinone, reference compound]
- ATP-dependent transport via MDR1 membrane vesicles (MDR1): No significant ATP-dependent transport
- Autosampler stability (4°C, 24 h), RE ([1]; HQC (800/2400/800 ng/ml)): 3.9%
- Post-extraction stability (room temperature 3 h), RE ([1]; HQC (800/2400/800 ng/ml)): 3.9%
- Autosampler stability (4°C, 24 h), RE ([1]; LQC (3.00/9.00/3.00 ng/ml)): 0.6%
- Post-extraction stability (room temperature 3 h), RE ([1]; LQC (3.00/9.00/3.00 ng/ml)): 0.7%
- stability in rat plasma under the test conditions [1]: stable
- Freeze-thaw stability (−20°C, three cycles), RE ([1]; HQC (800/2400/800 ng/ml)): 1.1%
- Short-term stability (room temperature 3 h), RE ([1]; HQC (800/2400/800 ng/ml)): -5.6%
- Freeze-thaw stability (−20°C, three cycles), RE ([1]; LQC (3.00/9.00/3.00 ng/ml)): -1.0%
- Short-term stability (room temperature 3 h), RE [1, 4]: -11.2%
- stability in blood [1]: stable
- AUC(0-t) [2, 5]: 191 ng·h/mL
- AUC(0-t) [2, 6]: 56.2 ng·h/mL
- AUC(0-t) [2, 7]: 352 ng·h/mL
- AUC(0-t) [2, 8]: 1850 ng·h/mL
- AUC0-t in portal vein, decrease in CCl4-induced rats compared with control rats [2]: 81.0%
- AUC0–t portal vein plasma vs femoral vein plasma, fold higher ([2]; CCl4-induced rats): 1.84 fold
- AUC0–t portal vein plasma vs femoral vein plasma, fold higher ([2]; control rats): 33.0 fold
- time of second absorption peak ([2]; control rats): 9.5 h
- temperature dependence of uptake into isolated rat hepatocytes (rat primary hepatocytes; 37 °C vs 4 °C): independent of temperature
- ATP-dependent transport via MRP2 membrane vesicles (MRP2): No significant ATP-dependent transport
- ATP-dependent transport via MRP3 membrane vesicles (MRP3): No significant ATP-dependent transport
- increase of residue of EZE in CCl4-induced rats compared with control rats (UGTs; liver S9, 0.3 μM EZE): 4.15 fold
- increase of residue of EZE in CCl4-induced rats compared with control rats (UGTs; liver S9, 3 μM EZE): 5.00 fold
- increase of residue of EZE in CCl4-induced rats compared with control rats (UGTs; liver S9, 30 μM EZE): 1.40 fold
- AUC(0-t) [3, 9]: 4610 ± 781 ng·h/mL
- half-life [3, 9]: 460 ± 185 min
- Cmax at 5 min [3, 9]: 2950 ± 571 ng/mL
- AUC(0-t) [3, 10]: 2180 ± 304 ng·h/mL
- half-life [3, 10]: 406 ± 199 min
- Cmax at 5 min [3, 10]: 1560 ± 361 ng/mL
- AUC(0-t) [3, 11]: 189 ± 66 ng·h/mL
- Cmax [3, 11]: 20.4 ± 8.1 ng/mL
- Tmax [3, 11]: 5.2 ± 3.9 h
- half-life [3, 11]: 738 ± 318 min
- AUC(0-t) [3, 12]: 17 ± 10 ng·h/mL
- Cmax [3, 12]: 2.63 ± 2.68 ng/mL
- Tmax [3, 12]: 4.95 ± 4.84 h
- half-life [3, 12]: 334 ± 227 min
- AUC0–t, fold higher in CCl4-induced rats than in control rats [3, 13]: 2.1 fold
- AUC0–t, fold higher in CCl4-induced rats than in control rats [3, 14]: 11.1 fold
- share in plasma relative to the main circulating component EZE-Ph [3, 14]: 0.4%

SMILES: O=C(O)[C@H]1O[C@@H](Oc2ccc([C@@H]3[C@@H](CC[C@H](O)c4ccc(F)cc4)C(=O)N3c3ccc(F)cc3)cc2)[C@H](O)[C@@H](O)[C@@H]1O [EZE-Ph, ezetimibe phenoxy β-D-glucuronide]
- +ATP/-ATP ratio (MDR1; MDR1 vesicles): 5.64
- Autosampler stability (4°C, 24 h), RE ([1]; HQC (800/2400/800 ng/ml)): 6.0%
- Post-extraction stability (room temperature 3 h), RE ([1]; HQC (800/2400/800 ng/ml)): 5.1%
- Autosampler stability (4°C, 24 h), RE ([1]; LQC (3.00/9.00/3.00 ng/ml)): 5.3%
- Post-extraction stability (room temperature 3 h), RE ([1]; LQC (3.00/9.00/3.00 ng/ml)): 8.8%
- stability in rat plasma under the test conditions [1]: stable
- Freeze-thaw stability (−20°C, three cycles), RE ([1]; HQC (800/2400/800 ng/ml)): -0.4%
- Short-term stability (room temperature 3 h), RE ([1]; HQC (800/2400/800 ng/ml)): 0.3%
- Freeze-thaw stability (−20°C, three cycles), RE ([1]; LQC (3.00/9.00/3.00 ng/ml)): 0.8%
- Short-term stability (room temperature 3 h), RE [1, 4]: -1.9%
- stability in blood [1]: stable
- AUC(0-t) [2, 5]: 12500 ng·h/mL
- AUC(0-t) [2, 6]: 2580 ng·h/mL
- AUC(0-t) [2, 7]: 15900 ng·h/mL
- AUC(0-t) [2, 8]: 14800 ng·h/mL
- AUC0-t in femoral vein blood, fold increase in CCl4-induced rats vs control [2]: 4.83 fold
- AUC0–t portal vein plasma vs femoral vein plasma, fold higher ([2]; CCl4-induced rats): 1.28 fold
- AUC0–t portal vein plasma vs femoral vein plasma, fold higher ([2]; control rats): 5.75 fold
- uptake at 37 °C relative to that at 4 °C (rat primary hepatocytes; rat hepatocytes): 50.0 times
- +ATP/-ATP ratio (MRP2; MRP2 vesicles): 65.5
- +ATP/-ATP ratio (MRP3; MRP3 vesicles): 5.71
- decrease of formation of EZE-Ph in CCl4-induced rats compared with control rats (UGTs; liver S9, 0.3 μM EZE): 8.80%
- decrease of formation of EZE-Ph in CCl4-induced rats compared with control rats (UGTs; liver S9, 3 μM EZE): 12.7%
- decrease of formation of EZE-Ph in CCl4-induced rats compared with control rats (UGTs; liver S9, 30 μM EZE): 27.4%
- AUC(0-t) [3, 9]: 40400 ± 1810 ng·h/mL
- Cmax [3, 9]: 6970 ± 807 ng/mL
- Tmax [3, 9]: 0.45 ± 0.11 h
- half-life [3, 9]: 575 ± 372 min
- AUC(0-t) [3, 10]: 2470 ± 418 ng·h/mL
- Cmax [3, 10]: 1050 ± 240 ng/mL
- Tmax [3, 10]: 0.083 h
- half-life [3, 10]: 538 ± 131 min
- AUC(0-t) [3, 11]: 18300 ± 6990 ng·h/mL
- Cmax [3, 11]: 1340 ± 585 ng/mL
- Tmax [3, 11]: 3 ± 1.41 h
- half-life [3, 11]: 539 ± 126 min
- AUC(0-t) [3, 12]: 4170 ± 1140 ng·h/mL
- Cmax [3, 12]: 276 ± 69 ng/mL
- Tmax [3, 12]: 8.8 ± 4.6 h
- half-life [3, 12]: 330 ± 21.6 min
- AUC0–t, fold higher in CCl4-induced rats than in control rats [3, 13]: 16.4 fold
- AUC0–t, fold higher than that of EZE-Hy [3, 13]: approximately 2.5 fold
- AUC0–t, fold higher in CCl4-induced rats than in control rats [3, 14]: 4.4 fold
